{"source": "ChEMBL document CHEMBL1201862", "about": "“PubChem BioAssay data set” (2004)", "key": {"Protein Wnt-3a": {"biological_target": "Protein Wnt-3a (Mus musculus, UniProt P27467)", "sequence (P27467 whole entry)": "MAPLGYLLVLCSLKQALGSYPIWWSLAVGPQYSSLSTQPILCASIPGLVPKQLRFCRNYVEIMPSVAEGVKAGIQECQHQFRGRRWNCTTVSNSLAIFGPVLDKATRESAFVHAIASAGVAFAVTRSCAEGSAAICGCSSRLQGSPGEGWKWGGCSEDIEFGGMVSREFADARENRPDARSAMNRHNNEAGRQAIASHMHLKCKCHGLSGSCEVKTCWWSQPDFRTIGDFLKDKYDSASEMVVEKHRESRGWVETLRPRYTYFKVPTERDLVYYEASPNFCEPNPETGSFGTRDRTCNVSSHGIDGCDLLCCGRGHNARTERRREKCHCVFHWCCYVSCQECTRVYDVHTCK", "test": "Wnt3a-driven reporter signaling inhibition, dose response, selectivity assay for Gli-SUFU antagonist project, Wnt-LIGHT cells, luminescence (AID 651570);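 also: Wnt-LIGHT reporter cells stimulated with conditioned medium from Wnt3a-producing cells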", "type": "functional", "conditions": "read-out: IC50_Mean"}, "[1]": {"biological_target": "Long-chain-fatty-acid--AMP ligase FadD28 (Mycobacterium tuberculosis, UniProt P9WQ59)", "sequence (P9WQ59 whole entry)": "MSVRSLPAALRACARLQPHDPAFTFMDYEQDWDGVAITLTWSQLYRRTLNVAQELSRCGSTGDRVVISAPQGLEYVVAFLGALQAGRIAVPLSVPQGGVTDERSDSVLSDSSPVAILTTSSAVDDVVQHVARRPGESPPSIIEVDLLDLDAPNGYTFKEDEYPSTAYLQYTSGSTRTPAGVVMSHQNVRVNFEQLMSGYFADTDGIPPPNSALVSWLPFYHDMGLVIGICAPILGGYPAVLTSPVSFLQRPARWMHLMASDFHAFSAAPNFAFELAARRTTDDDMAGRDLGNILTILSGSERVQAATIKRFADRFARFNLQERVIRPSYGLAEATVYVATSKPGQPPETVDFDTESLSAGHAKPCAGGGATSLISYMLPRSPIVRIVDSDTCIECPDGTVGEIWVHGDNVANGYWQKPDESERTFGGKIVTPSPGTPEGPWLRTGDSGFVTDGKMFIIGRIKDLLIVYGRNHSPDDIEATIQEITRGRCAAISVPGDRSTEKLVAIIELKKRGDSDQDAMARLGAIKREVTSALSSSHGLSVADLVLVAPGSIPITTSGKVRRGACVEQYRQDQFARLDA", "test": "Fluorescence polarization aasay to screen for inhibitors that compete for the binding of FadD28 to a bisubstrate Measured in Biochemical System Using Plate Reader - 2147-01_Inhibitor_Dose_CherryPick_Activity.", "type": "functional, Mycobacterium tuberculosis H37Rv"}, "[2]": {"biological_target": "T1, High affinity choline transporter 1 (Homo sapiens, UniProt Q9GZV3)", "T1 sequence (Q9GZV3 whole entry)": "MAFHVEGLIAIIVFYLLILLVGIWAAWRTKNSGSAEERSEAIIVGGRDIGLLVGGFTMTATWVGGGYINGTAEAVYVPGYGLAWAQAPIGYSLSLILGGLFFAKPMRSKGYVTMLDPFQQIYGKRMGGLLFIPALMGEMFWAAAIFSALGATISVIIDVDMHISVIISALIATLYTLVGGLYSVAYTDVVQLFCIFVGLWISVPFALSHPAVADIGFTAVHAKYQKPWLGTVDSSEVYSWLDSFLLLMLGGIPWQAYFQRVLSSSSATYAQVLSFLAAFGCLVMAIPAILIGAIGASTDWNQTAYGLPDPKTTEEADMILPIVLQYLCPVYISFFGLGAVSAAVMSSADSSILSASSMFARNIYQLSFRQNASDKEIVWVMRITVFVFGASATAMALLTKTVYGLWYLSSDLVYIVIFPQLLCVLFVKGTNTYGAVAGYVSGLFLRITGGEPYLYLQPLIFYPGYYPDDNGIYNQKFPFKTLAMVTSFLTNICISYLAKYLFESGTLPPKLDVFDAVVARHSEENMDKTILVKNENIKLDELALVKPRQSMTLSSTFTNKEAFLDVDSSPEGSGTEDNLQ", "test": "CHT inhibitors, dose response, cell-based, 5-point CRC, membrane potential dye (AID 504840)", "type": "functional"}, "[3]": {"biological_target": "T1, High affinity choline transporter 1", "test": "CHT inhibitors, dose response, cell-based, 10-point CRC, membrane potential dye (AID 588401);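 also: membrane potential dye fluorescence of choline-evoked depolarization via CHT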", "type": "functional"}, "Melanocortin receptor 4": {"biological_target": "Melanocortin receptor 4 (Homo sapiens, UniProt P32245)", "sequence (P32245 whole entry)": "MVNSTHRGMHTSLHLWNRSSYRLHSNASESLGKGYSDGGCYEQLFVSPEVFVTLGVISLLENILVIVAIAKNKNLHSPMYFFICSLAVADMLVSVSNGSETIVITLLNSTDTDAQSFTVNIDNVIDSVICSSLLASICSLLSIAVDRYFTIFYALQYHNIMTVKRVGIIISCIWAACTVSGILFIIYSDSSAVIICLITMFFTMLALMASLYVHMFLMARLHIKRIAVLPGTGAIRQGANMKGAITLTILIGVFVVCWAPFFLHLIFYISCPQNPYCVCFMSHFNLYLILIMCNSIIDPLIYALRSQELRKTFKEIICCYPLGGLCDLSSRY", "type": "functional, cell-based"}, "[4]": {"test": "inhibitors of intracellular T. cruzi replication, confirmation, NIH3T3 host cells, beta-gal luminescence (AID 2044);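 also: luminescent beta-galactosidase reporter signal from transgenic T. cruzi replicating inside host cells; inhibitors lower the luminescence signal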", "type": "functional, cell-based"}, "[5]": {"test": "growth suppression of PTEN-null colon cells, dose response, cell-based, HCT116 PTEN knockout (AID 1047);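 also: cells exposed to compound for 60 hours before readout; potency for loss of cell viability measured by luminescence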", "type": "functional"}, "[6]": {"test": "cytotoxicity toward NIH3T3 fibroblasts, dose response, counter-screen, cell-based, ATP luminescence, mouse fibroblasts (AID 2010);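 also: cells exposed to compound for about 90 hours before reading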", "type": "functional"}, "[7]": {"test": "growth suppression of beta-catenin-knockout colon cells, dose response, cell-based, HCT116, human colon tumor (AID 1045);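 also: cells exposed to compound for 60 hours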", "type": "functional"}, "[8]": {"biological_target": "Delta-type opioid receptor (Homo sapiens, UniProt P41143)", "sequence (P41143 whole entry)": "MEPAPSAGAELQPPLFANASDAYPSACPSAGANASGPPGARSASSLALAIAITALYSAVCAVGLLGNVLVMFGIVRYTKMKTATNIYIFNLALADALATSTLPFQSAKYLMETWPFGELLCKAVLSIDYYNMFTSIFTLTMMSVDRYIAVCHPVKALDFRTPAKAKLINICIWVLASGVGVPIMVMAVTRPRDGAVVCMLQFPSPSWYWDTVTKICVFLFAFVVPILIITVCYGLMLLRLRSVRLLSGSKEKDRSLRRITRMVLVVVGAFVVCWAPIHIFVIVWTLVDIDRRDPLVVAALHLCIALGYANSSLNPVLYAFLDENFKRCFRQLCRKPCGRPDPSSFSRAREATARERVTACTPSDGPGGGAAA", "test": "Counterscreen for agonists of heterodimerization of the mu 1 (OPRM1) and delta 1 (OPRD1) opioid receptors: Luminescence-based cell-based high throughput dose response assay to identify agonists of OPRD1 homodimerization. [Related pubchem assays (depositor defined):AID504326, AID504355, AID504692, AID504904, AID504905]", "type": "functional"}, "Mu-type opioid receptor": {"biological_target": "Mu-type opioid receptor (Homo sapiens, UniProt P35372)", "sequence (P35372 whole entry)": "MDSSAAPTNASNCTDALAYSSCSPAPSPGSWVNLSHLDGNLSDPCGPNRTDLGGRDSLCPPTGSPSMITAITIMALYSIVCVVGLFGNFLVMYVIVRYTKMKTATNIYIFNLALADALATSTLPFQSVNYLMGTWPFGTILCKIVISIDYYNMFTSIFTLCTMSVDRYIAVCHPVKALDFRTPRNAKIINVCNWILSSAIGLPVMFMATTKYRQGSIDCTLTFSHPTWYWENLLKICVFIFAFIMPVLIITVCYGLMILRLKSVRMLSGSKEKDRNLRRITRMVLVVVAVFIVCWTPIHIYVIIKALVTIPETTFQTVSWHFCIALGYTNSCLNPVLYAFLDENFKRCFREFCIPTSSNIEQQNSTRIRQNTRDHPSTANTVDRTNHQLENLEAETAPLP", "test": "Counterscreen for agonists of heterodimerization of the mu 1 (OPRM1) and delta 1 (OPRD1) opioid receptors: Luminescence-based cell-based high throughput dose response assay to identify agonists of OPRM1 homodimerization.", "type": "functional"}, "[9]": {"biological_target": "5-hydroxytryptamine receptor 5A (Homo sapiens, UniProt P47898)", "sequence (P47898 whole entry)": "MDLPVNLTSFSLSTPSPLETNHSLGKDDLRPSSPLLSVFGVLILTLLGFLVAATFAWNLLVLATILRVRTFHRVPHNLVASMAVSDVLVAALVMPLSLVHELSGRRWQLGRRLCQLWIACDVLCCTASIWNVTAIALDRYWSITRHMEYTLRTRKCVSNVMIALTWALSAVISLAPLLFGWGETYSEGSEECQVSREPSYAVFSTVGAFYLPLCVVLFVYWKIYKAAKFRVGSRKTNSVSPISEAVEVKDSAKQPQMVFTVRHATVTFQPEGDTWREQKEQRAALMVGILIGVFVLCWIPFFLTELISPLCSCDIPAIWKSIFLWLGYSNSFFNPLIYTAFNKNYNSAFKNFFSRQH", "test": "Counterscreen for agonists of OPRM1-OPRD1 heterodimerization: luminescence-based cell-based high throughput dose response assay to identify agonists of 5-hydroxytryptamine (serotonin) 5A receptor (HTR5A). [Related pubchem assays (depositor defined):AID504326, AID504355, AID504692, AID504904, AID504905]", "type": "functional"}, "[10]": {"test": "Shn3 3'UTR reporter inhibitors, dose response, cell-based, Clone20 osteoblasts, firefly luciferase, cherry-picked (AID 624132)", "type": "functional"}, "[11]": {"test": "HepG2 cell cytotoxicity, dose response, cytotoxicity control for Shn3 inhibitor project, CellTiter-Glo, cherry-picked (AID 624134)", "type": "functional, cell-based"}, "[12]": {"test": "control 3'UTR Renilla luciferase suppression, dose response, counter-screen for Shn3 inhibitor project, cell-based, Clone20-Shn3RL, cherry-picked (AID 624133)", "type": "functional"}, "Beta-lactamase [13]": {"biological_target": "Beta-lactamase (Salmonella choleraesuis (strain SC-B67), UniProt Q5J463)", "sequence (Q5J463 whole entry)": "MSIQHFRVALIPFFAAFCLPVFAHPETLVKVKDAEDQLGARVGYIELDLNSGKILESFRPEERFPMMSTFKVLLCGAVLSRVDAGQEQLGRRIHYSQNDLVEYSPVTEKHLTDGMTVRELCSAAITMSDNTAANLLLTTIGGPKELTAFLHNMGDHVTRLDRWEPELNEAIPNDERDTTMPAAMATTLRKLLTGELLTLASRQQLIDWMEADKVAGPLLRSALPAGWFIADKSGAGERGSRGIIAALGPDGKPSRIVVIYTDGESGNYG", "test": "Epi-absorbance-based counterscreen for selective VIM-2 inhibitors: dose response biochemical high throughput screening assay to identify inhibitors of TEM-1 serine-beta-lactamase."}, "Beta-lactamase [14]": {"biological_target": "T2, Beta-lactamase (Pseudomonas aeruginosa, UniProt Q79MP6)", "T2 sequence (Q79MP6 whole entry)": "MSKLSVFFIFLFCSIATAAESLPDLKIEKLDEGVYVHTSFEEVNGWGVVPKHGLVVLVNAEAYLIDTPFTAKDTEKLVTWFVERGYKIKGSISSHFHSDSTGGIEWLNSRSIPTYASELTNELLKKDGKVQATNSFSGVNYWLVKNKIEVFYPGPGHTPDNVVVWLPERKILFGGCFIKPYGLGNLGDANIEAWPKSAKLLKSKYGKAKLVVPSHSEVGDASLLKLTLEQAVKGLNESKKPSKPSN", "test": "IMP-1 metallo-beta-lactamase inhibitors, dose response, selectivity assay for VIM-2 inhibitor project, biochemical, epi-absorbance (AID 1920)"}, "Beta-lactamase [15]": {"biological_target": "T2, Beta-lactamase", "test": "[…] counterscreen for selective VIM-2 inhibitors: dose response biochemical high throughput screening assay to identify inhibitors of IMP-1 metallo-beta-lactamase."}, "Bcl-2-related protein A1": {"biological_target": "T3, Bcl-2-related protein A1 (Mus musculus, UniProt Q07440)", "T3 sequence (Q07440 whole entry)": "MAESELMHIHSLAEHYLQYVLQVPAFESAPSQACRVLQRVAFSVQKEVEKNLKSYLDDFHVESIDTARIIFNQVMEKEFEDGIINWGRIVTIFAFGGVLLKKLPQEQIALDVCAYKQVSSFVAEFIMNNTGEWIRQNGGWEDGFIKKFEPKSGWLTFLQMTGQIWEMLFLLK", "type": "functional"}, "[16]": {"biological_target": "T4, Ubiquitin-conjugating enzyme E2 N (Homo sapiens, UniProt P61088)", "T4 sequence (P61088 whole entry)": "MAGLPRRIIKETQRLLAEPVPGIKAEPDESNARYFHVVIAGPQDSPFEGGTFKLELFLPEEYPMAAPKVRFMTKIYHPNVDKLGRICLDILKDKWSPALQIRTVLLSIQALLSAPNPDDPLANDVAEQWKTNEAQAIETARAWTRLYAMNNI", "type": "functional"}, "[17]": {"biological_target": "T4, Ubiquitin-conjugating enzyme E2 N", "type": "functional", "remark": "listed apart in the source"}, "[18]": {"biological_target": "Arf-GAP with SH3 domain, ANK repeat and PH domain-containing protein 1 (Homo sapiens, UniProt Q9ULH1)", "sequence (Q9ULH1 whole entry, the tested form may be a part)": "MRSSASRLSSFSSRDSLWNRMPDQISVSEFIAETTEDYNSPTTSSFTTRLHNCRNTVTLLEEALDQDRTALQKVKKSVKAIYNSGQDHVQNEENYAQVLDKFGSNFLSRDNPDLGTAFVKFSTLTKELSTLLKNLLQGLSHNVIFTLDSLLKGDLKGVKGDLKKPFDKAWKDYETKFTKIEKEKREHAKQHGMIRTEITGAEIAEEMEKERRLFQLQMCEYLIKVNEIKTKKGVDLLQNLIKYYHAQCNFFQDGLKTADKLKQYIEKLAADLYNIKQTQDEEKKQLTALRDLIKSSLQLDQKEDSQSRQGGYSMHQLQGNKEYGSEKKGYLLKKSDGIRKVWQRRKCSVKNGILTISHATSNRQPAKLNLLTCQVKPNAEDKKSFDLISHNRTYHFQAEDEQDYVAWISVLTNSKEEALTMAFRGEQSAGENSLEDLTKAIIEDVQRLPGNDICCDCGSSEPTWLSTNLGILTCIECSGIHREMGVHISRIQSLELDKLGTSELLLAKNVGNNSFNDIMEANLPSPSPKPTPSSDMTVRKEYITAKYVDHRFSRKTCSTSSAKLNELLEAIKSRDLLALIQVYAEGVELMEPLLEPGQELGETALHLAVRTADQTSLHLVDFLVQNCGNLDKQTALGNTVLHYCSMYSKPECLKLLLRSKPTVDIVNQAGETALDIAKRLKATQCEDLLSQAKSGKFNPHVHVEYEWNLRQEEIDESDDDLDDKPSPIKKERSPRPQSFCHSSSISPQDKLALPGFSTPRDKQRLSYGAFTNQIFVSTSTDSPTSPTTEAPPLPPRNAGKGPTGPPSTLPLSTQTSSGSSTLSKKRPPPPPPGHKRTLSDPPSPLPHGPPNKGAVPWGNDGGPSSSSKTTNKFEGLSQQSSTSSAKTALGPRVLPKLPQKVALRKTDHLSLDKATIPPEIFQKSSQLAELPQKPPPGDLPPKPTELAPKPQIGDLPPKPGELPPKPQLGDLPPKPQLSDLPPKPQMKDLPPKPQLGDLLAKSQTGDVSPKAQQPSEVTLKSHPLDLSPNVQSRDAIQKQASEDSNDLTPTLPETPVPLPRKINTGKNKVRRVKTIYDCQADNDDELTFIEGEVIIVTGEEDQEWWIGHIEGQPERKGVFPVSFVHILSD", "type": "functional"}}, "note": "Active and inactive are the calls of the source."}
{"smiles": "CCCN1CCC(=O)N([C@H](CSc2ccc(OC)cc2)Cc2ccccc2)CC1", "values": [{"measurement": "IC50", "setting": "Protein Wnt-3a", "value": "11 µM (active)"}]}
{"smiles": "CC(C)(C)c1ccc(NC(=O)Nc2ccc(OCC(=O)N3CCOCC3)cc2)cc1", "values": [{"measurement": "AC50", "setting": "[1]", "value": "41.4 µM (active)"}]}
{"smiles": "O=C(NCCCn1ccnc1)c1cnn2c1NC(c1ccccc1)CC2C(F)(F)F", "note": "(centres undefined)", "values": [{"measurement": "IC50", "setting": "[2]", "value": "8.15 µM (active)"}, {"measurement": "IC50", "setting": "[3]", "value": "4.47 µM (active)"}]}
{"smiles": "N#Cc1sc2nc(-c3cccs3)cc(-c3ccc(F)cc3)c2c1N", "values": [{"measurement": "EC50", "setting": "Melanocortin receptor 4", "value": "> 89.2 µM (inactive)"}]}
{"smiles": "Cc1ccc(Cn2c(=N)n(CC(O)COc3ccccc3)c3ccccc32)cc1", "note": "(centres undefined)", "values": [{"measurement": "EC50", "setting": "[4]", "value": "4.91 µM (active)"}, {"measurement": "EC50", "setting": "[5]", "value": "5.49 µM (active)"}, {"measurement": "EC50", "setting": "[6]", "value": "9.05 µM (active)"}, {"measurement": "EC50", "setting": "[7]", "value": "5.07 µM (active)"}, {"measurement": "IC50", "setting": "[2]", "value": "5.55 µM (active)"}, {"measurement": "EC50", "setting": "[8]", "value": "> 92.5 µM (inactive)"}, {"measurement": "EC50", "setting": "Mu-type opioid receptor", "value": "35.1 µM (inactive)"}, {"measurement": "EC50", "setting": "[9]", "value": "> 92.5 µM (inactive)"}, {"measurement": "IC50", "setting": "[3]", "value": "7.08 µM (active)"}, {"measurement": "AC50", "setting": "[10]", "value": "2.46 µM (active)"}, {"measurement": "AC50", "setting": "[11]", "value": "21.4 µM (active)"}, {"measurement": "AC50", "setting": "[12]", "value": "3.9 µM (active)"}]}
{"smiles": "Cc1cccc(-n2c(C)nnc2S)c1C", "values": [{"measurement": "IC50", "setting": "Beta-lactamase [13]", "value": "> 59.6 µM (inactive)"}, {"measurement": "IC50", "setting": "Beta-lactamase [14]", "value": "> 59.6 µM (inactive)"}, {"measurement": "IC50", "setting": "Beta-lactamase [15]", "value": "> 59.6 µM (inactive)"}]}
{"smiles": "COCCN=C(S)N=Nc1c(O)[nH]c2ccc([N+](=O)[O-])cc12", "values": [{"measurement": "IC50", "setting": "Bcl-2-related protein A1", "value": "> 20 µM (inactive)"}, {"measurement": "IC50", "setting": "[16]", "value": "6.15 µM (active)"}, {"measurement": "IC50", "setting": "[17]", "value": "1.52 µM (active)"}, {"measurement": "IC50", "setting": "[18]", "value": "26.8 µM (inactive)"}]}
